What all share (assay): NCI anticancer screen, dose series, 48 h
The test system of test [1] is NCI-H522 lung.
In test [2] the test system is OVCAR-3 ovarian.
For test [3], the system named is OVCAR-5 ovarian.
The test system of test [4] is SF-295 CNS.
The subject of test [5] is OVCAR-8 ovarian.
In test [6] the test system is EKVX NSCLC.
In test [7] the test system is SK-OV-3 ovarian.
For test [8], the system named is IGROV1 ovarian.
Test [9] deals with PC-3 prostate.
Test [10] deals with NCI/ADR-RES ovarian.

Values joined by “and” are separate entries in the source; they are usually repeats but may differ in a detail not shown here. Identical values can stand only once.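 Five concentrations, 48 hours, 96-well plates. At the GI50, growth is halved. The concentration for full growth arrest is given as TGI.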

With `Clc1cc(Cl)c2ns[s+]c2c1Cl`, the TGI in test [1], in test [2], in test [3], in test [4], in [5] and in [6] was over 100 µM throughout. Moreover, the TGI in test [7] and in test [8] was over 100 µM in each case.

Take `CNC(=S)/N=C(\N)N(C)C`: the TGI in [1], in [2], in [4], in test [5], in [6] and in [7] was over 100 µM throughout. The compound further returned a TGI in test [8] of over 100 µM.

Consider `CCCCNC1CCCCC[C@H]1O` (some centres not stated), for which the TGI in test [1], in [2], in test [3], in test [4], in test [5] and in [6] was over 100 µM each time. The TGI in [7] and in test [8] was over 100 µM throughout.

As for `CC(C)c1c(O)c(O)c2c(c1O)C(=O)C(O)=C1C(C)(C)CCC[C@@]12C`, the TGI in test [1] turned out to be 13.4 µM; in test [2], 16.2 µM; in test [3], 19.5 µM; in [4] it was 12 µM; in [5] it was 10.2 µM; in test [6], 11.5 µM. The figures for the TGI in [7], in test [8] and in test [9] were 15.6 µM, 13.9 µM and 11.8 µM, respectively.

Take `CCOC(=O)/C(C)=C(/O)C(=O)OCC`: the TGI in test [1], in test [2], in test [3], in [4], in [5] and in [6] was over 100 µM each time. For the same compound, the TGI in test [7] and in [8] was over 100 µM throughout.

For the compound `COC(=O)[C@@]12C(=O)C=CC(=O)C1C1C(=CC2C)OC2OC3(CCCCC3)OC21` (some centres not stated), the TGI in test [2] amounted to 33.8 µM; in test [3], 27.8 µM; in test [4], 32.9 µM; in test [5], 30.9 µM; in test [6], 37.8 µM; in test [7] it was 33.9 µM. In addition, in test [8], the TGI was found to be 35.1 µM.

`COc1cc2[nH]c3c(c2cc1OC)CCN[C@]31CC[C@]2(CC3c4c(cc(OC)c(O)c42)CCN3C)C[C@H]1OC` (some centres not stated): the TGI in test [2] was 46.2 µM; in test [3], over 100 µM; in [4], 36.4 µM; in [5], 50 µM; in test [6], over 100 µM; in test [7] it was 59.1 µM. Further, the TGI in test [8] was found to be 80.6 µM.

Take `CN(Cc1ccccc1)C(=O)c1ccccc1C(=O)O`: the TGI in test [1], in [2], in test [3], in test [4], in test [5] and in test [6] was over 100 µM throughout. Further, the TGI in test [7] and in test [8] was over 100 µM in each case.

Take `c1cnn(CN(Cn2cccn2)Cn2cccn2)c1`: the TGI in test [1], in test [2], in [4], in test [5], in test [6] and in test [7] was over 100 µM each time.

For `CCCC1=C(CC)C(C(=O)Nc2c(C)cccc2C)=NC(S)N1` (configuration not stated), the TGI in test [1], in test [2], in [3], in test [4], in [5] and in test [6] was over 100 µM in each case. The compound further registered a TGI in test [8] of over 100 µM.

With `CC(=O)C1Cn2c(nc3ccccc32)C[Se]1` (configuration not stated), the TGI in test [1] turned out to be 10.3 µM; in test [2], 4.5 µM; in test [3], 10.4 µM; in test [4], 10.1 µM; in [5], 13.3 µM; in [6] it was 28.7 µM. For the same compound, the TGI turned out to be 34 µM in test [7] and 6.02 µM in test [8].

Take `COc1cc(Cc2nccc3cc(OC)c(OC)cc23)c(C(C)=O)cc1OC`: the GI50 in [1] was 21.5 µM; in test [2], 86 µM and 27.7 µM; in [3], 204 µM; in test [4], 224 µM; in [8], 51.4 µM and 92.7 µM. For the same compound, the TGI was 300 µM in [1]; 300 µM and 203 µM in [2]; over 750 µM in [3]; over 750 µM in test [4]; 3 µM in test [5]; 295 µM in test [6]. For the same compound, the TGI in test [7] was 254 µM; in test [8] it was 300 µM and 440 µM; in test [10], over 300 µM.

For `CC1=CC(C)(C)N=C2SC(c3ccc(N)cc3)=NN12`, the TGI in test [1], in [2], in test [3], in test [4], in test [5] and in test [6] was over 100 µM in each case. Further, the TGI in test [7] and in test [8] was over 100 µM in each case.

With `c1ccc(C2N3CCCCC3[C@@H]3c4[nH]c5ccccc5c4CCN23)nc1` (some centres not stated), the TGI in test [2], in test [3], in test [4], in test [5], in test [6] and in test [7] was over 100 µM each time. This compound yielded a TGI in [8] of over 100 µM.

With `COc1cc(/C=C/c2ccc(OC)c(O)c2)cc(OC)c1`, the TGI in test [1] turned out to be 4.49 µM; in test [2] it was 4.88 µM; in test [3], 89.1 µM; in test [4], 4.54 µM; in [5] it was 36.1 µM; in [6], 90 µM. In addition, the TGI worked out at 86.6 µM in test [7] and 86.4 µM in test [8].

Consider `O=C(/C=C/c1ccc(Cl)c(Cl)c1)c1ccc2ccccc2c1`, for which the TGI in test [1], in test [2], in test [3], in test [4], in test [5] and in test [6] was over 100 µM in each case. Besides, the TGI in test [7] and in [8] was over 100 µM throughout.

`CCOC(=O)N[C@@H]1C(CC(=O)OC)O[C@H]2OC(C)(C)O[C@H]21` (some centres not stated): the TGI in test [2], in test [3], in [4], in test [7] and in test [8] was over 100 µM in each case.

As for `CCOC(=O)C1SC(=Nc2ccc(C)c(C)c2)N=C1C` (configuration not stated), the TGI in test [1], in test [2], in test [3], in [4], in test [5] and in test [6] was over 100 µM throughout. Further, the TGI in test [7] and in [8] was over 100 µM throughout.

Regarding `CC1=[N+]([O-])c2ccccc2C(=O)C1=O`, the TGI in [1] was 71.4 µM; in [2], over 100 µM; in test [3] it was over 100 µM; in test [4], over 100 µM; in [5] it was over 100 µM; in test [6], over 100 µM. The TGI in test [7] and in test [8] was over 100 µM in each case.

For the compound `COC(=O)C(CC(=O)Nc1ccc(C)cc1)C(=O)C(=O)Nc1c(C(C)C)cccc1C(C)C` (configuration not stated), the TGI in test [1], in test [3], in test [5], in test [6], in test [7] and in [8] was over 100 µM each time.

On to `COc1ccc2c3c([nH]c2c1[N+](=O)[O-])C(C)N(C)CC3` (configuration not stated), for which the TGI in test [1], in test [2], in [3], in test [4], in test [5] and in test [6] was over 100 µM each time. Also, the TGI in test [7] and in test [8] was over 100 µM throughout.

As to `[N-]=[N+]=C1C(=O)NN=C1c1ccccc1`, the TGI in test [1], in [2], in test [3], in test [4], in test [5] and in test [6] was over 100 µM in each case. Further, the TGI in test [7] and in [8] was over 100 µM each time.

Turning to `O=C(c1cccc2ccccc12)N1CCC(C2CCN(C(=O)c3cccc4ccccc34)CC2)CC1`, the TGI in test [1], in [2], in [3], in [4], in [5] and in [6] was over 100 µM in each case. Moreover, the TGI in test [7] and in [8] was over 100 µM throughout.

For `Cc1[nH]c(=O)nc2[nH][nH]c(=O)c12`, the TGI in test [1], in test [2], in [3], in [4], in test [5] and in [6] was over 100 µM in each case. Further, the TGI in test [7] and in test [8] was over 100 µM each time.

As for `COc1ccc(CN2CC(C)(C)C2=O)c(OC)c1`, the TGI in [1], in test [2], in test [4], in test [5], in test [6] and in [7] was over 100 µM each time. Moreover, the TGI in test [8] was over 100 µM.

Turning to `O=C(N/N=C/c1cc(Br)ccc1O)N/N=C/c1cc(Br)ccc1O`, the TGI in [1] is over 100 µM; in test [3] it was over 100 µM; in test [4], over 100 µM; in test [5], 21.1 µM; in test [6], over 100 µM; in test [7], over 100 µM.

Turning to `Cc1nnc(NS(=O)(=O)c2ccc(N=Nc3cc(N=Nc4ccc(S(=O)(=O)Nc5nnc(C)s5)cc4)c4c(NC(=O)C(Cl)Cl)cccc4c3OC(=O)C(Cl)Cl)cc2)s1` (tested in a mixture with another compound), the TGI in test [1] is 64.7 µM; in test [2], 55.2 µM; in test [3], 55.5 µM; in test [4], over 100 µM; in test [5], 43.7 µM; in test [6] it was 89.2 µM. Besides, the TGI in test [8] came to 97.5 µM.

`CN(C)CCC1(C2=CCCC2)CC/C(=C\c2ccc(Cl)cc2)C1=O` (configuration not stated): the TGI in [1] came out at 18.8 µM; in test [2], 26.8 µM; in test [3], 25.7 µM; in test [4] it was 20.8 µM; in test [5], 25.3 µM; in test [6] it was 18.8 µM. The TGI in [7] is 19.6 µM; in test [8] it was 21 µM.

With `Cc1cc(NC(=S)SCc2ccc(F)cc2)c([N+](=O)[O-])cc1C`, the TGI in test [2] is 54.6 µM; in [3] it was 54.7 µM; in [4], over 100 µM; in test [5] it was 38.6 µM; in test [6], 91.3 µM; in test [7], over 100 µM. For the same compound, the TGI in test [9] was over 100 µM; in test [10], 62.2 µM.

On to `O=C(O)CNS(=O)(=O)c1ccc(NC(=O)c2ccc([N+](=O)[O-])cc2)cc1`, for which the TGI in test [1], in test [2], in [3], in test [4], in [5] and in [6] was over 100 µM throughout. Further, the TGI in test [7] and in [8] was over 100 µM throughout.

With `O=C(CCc1nc(=S)[nH][nH]1)Nc1ccccc1Cl`, the TGI in [1], in test [2], in [3], in test [4], in [5] and in [6] was over 100 µM in each case. The TGI in test [7] and in test [8] was over 100 µM throughout.

In the case of `COc1cc2ncnc(-n3ncc4cc(NC(=O)Nc5ccccc5)ccc43)c2cc1OC`, the GI50 was 2.08 µM in test [2]; 1.24 µM in test [3]; 0.73 µM in [4]; 5.17 µM in test [5]; 1.59 µM in [6]; 0.42 µM in test [7]. For the same compound, the GI50 was 0.427 µM in test [8], 1.09 µM in [9] and 2.52 µM in [10]. Moreover, the TGI in test [2] was 13.1 µM; in [3], 13.8 µM; in test [4] it was 5.87 µM; in test [5], 28.3 µM; in test [6], 7.3 µM; in [7] it was 4.6 µM. Moreover, the TGI in [8] amounted to 4.62 µM; in [9], 3.36 µM; in test [10], 17.6 µM.

The record behind these values is PubChem BioAssay (NCI).
